Assay [1] has as its system CWR22R. Briefly: Antiproliferative activity against AR-positive human 22Rv1 cells harboring ARE14 construct assessed as cell viability at 40 uM measured after 72 hrs by resazurin dye based fluorescence assay relative to control. The following applies: 22Rv1, 72 h, read-out: Activity. Type of assay: functional. (In general: The colour change of resazurin is a common sign of viable cells or microbes.)

For another assay, the system named is LNCaP. Briefly: Antiproliferative activity against AR-positive human LNCAP cells assessed as cell viability at 40 uM measured after 72 hrs by resazurin dye based fluorescence assay relative to control. The format is functional. The following applies: read-out: Activity.
Assay [2] deals with PC-3. Briefly: Antiproliferative activity against AR-negative human PC3 cells assessed as cell viability at 40 uM measured after 72 hrs by resazurin dye based fluorescence assay relative to control. Type of assay: functional. As to conditions: PC-3, 72 h, read-out: Activity.
The subject of another assay is LAPC4. Briefly: Antiproliferative activity against AR-positive human LAPC4 cells assessed as cell viability at 40 uM measured after 72 hrs by resazurin dye based fluorescence assay relative to control. The format is functional. As to conditions: LAPC4, 72 h, read-out: Activity.
Assay [3] relates to VCaP. Description: Antiproliferative activity against AR-positive human VCaP cells assessed as cell viability at 40 uM measured after 72 hrs by resazurin dye based fluorescence assay relative to control. As to conditions: read-out: Activity. Type of assay: functional.
Assay [4] has as its system CWR22R. Description: Effect on AR-V7 variant protein expression in AR-positive human 22Rv1 cells harboring ARE14 construct at 10 uM after 24 hrs by immunoblot analysis. Type of assay: functional, cell-based. A general note: Immunoblotting shows a protein as a band on a membrane.
Assay [5] concerns VCaP. Description: Antiproliferative activity against AR-positive human VCaP cells assessed as growth inhibition measured after 72 hrs by resazurin dye based fluorescence assay. Type of assay: functional.
Assay [6] concerns the target T1, Androgen receptor (Homo sapiens) (UniProt P10275).
T1 sequence (whole entry): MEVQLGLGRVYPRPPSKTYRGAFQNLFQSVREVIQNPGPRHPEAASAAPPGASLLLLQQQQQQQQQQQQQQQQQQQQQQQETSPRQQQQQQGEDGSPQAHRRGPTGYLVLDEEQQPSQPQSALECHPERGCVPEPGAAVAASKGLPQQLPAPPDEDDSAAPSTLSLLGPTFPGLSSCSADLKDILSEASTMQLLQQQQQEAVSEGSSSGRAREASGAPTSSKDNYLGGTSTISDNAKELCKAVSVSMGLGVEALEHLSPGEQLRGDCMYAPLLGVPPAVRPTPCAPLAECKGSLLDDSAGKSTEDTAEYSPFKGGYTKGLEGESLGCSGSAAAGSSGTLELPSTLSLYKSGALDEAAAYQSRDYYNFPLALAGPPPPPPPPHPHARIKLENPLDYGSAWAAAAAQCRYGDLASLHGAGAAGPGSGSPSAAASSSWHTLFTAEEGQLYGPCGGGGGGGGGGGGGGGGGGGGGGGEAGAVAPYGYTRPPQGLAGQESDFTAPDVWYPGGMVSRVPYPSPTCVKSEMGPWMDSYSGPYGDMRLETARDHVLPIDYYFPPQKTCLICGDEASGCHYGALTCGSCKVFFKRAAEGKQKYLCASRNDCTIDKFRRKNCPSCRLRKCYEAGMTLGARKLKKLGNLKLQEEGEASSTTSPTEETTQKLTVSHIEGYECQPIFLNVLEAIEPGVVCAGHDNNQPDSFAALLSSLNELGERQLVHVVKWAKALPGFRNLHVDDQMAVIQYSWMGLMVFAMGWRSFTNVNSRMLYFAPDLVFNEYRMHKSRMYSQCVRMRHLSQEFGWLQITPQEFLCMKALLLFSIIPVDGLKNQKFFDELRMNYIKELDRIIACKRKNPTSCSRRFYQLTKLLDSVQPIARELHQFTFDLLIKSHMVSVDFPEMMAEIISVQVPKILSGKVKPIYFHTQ
The following applies: at 10 µM.
Description: Inhibition of R1881 induced-AR transcriptional activity in AR-positive human 22Rv1 cells harboring ARE14 construct at 10 uM after 24 hrs by luciferase assay

Assay [7] concerns CWR22R. Briefly: Antiproliferative activity against human AR-positive 22Rv1 cells harboring ARE14 construct assessed as growth inhibition measured after 72 hrs by resazurin dye based fluorescence assay. The format is functional. The following applies: 22Rv1, 72 h.
The target in assay [8] is T1, Androgen receptor (Homo sapiens). The following applies: at 10 µM. The source holds these as a separate data set.
Description: Inhibition of AR transcriptional activity in AR-positive human 22Rv1 cells harboring ARE14 construct assessed as suppression of PSA expression at 10 uM after 24 hrs by immunoblot analysis
For assay [9] the target is unchanged. As to conditions: at 10 µM. This is another data set of the same source.
Description: Inhibition of AR transcriptional activity in AR-positive human 22Rv1 cells harboring ARE14 construct assessed as suppression of NKX3.1 expression at 10 uM after 24 hrs by immunoblot analysis
The test system of assay [10] is PC-3. Briefly: Antiproliferative activity against AR-negative human PC3 cells assessed as growth inhibition measured after 72 hrs by resazurin dye based fluorescence assay. The format is functional. The following applies: PC-3, 72 h.

Active and inactive are the calls of the source. No cut-off for these calls is given here.

With `CNC(=O)c1ccc(N2C(=S)N(c3ccc(C#N)c(C(F)(F)F)c3)C(=O)C2(C)C)cc1F` [ENZALUTAMIDE], the viability at 40 µM in the assay with CWR22R [1] was 84%; in the assay with LNCaP, 94.2%; with PC-3 [2], 88.7%; in the assay on LAPC4, 80.3%; in the assay with VCaP [3], 61.2%.
As a reminder, the GI50 is the concentration at which growth is held to half of that of the control. Regarding `COC(=O)c1nn2c(c1C(=O)OC)C[C@]1(C(C)=O)[C@@H](C[C@H]3[C@@H]4CC=C5C[C@@H](O)CC[C@]5(C)[C@H]4CC[C@@]31C)C2`, the viability at 40 µM is 88% in the assay on CWR22R [1], 71.7% in the assay on PC-3 [2] and more than 100% in the assay with VCaP [3]. Moreover, the result in the assay on CWR22R [4] was inactive. The GI50 with VCaP [5], in the assay with CWR22R [7] and in the assay on PC-3 [10] was more than 40 µM throughout. For the same molecule, the inhibition entry in [6], in [8] and in [9] was “inactive” each time.
Regarding `COC(=O)c1cnn2c1C[C@]1(C(C)=O)[C@@H](C[C@H]3[C@@H]4CC=C5C[C@@H](OC(C)=O)CC[C@]5(C)[C@H]4CC[C@@]31C)C2`, the viability at 40 µM in the assay with CWR22R [1] was 83.3%; in the assay with PC-3 [2] it was more than 100%; in the assay with VCaP [3] it was 84.9%. Besides, the outcome in the assay with CWR22R [4] was inactive. Besides, the GI50 in the assay on VCaP [5], with CWR22R [7] and in the assay with PC-3 [10] was more than 40 µM throughout. Also, in [6], the inhibition result is “inactive”. For the same molecule, the inhibition entry in [8] was “Active”.
For `COC(=O)c1cnn2c1C[C@]1(C(C)=O)[C@@H](C[C@H]3[C@@H]4CC=C5C[C@@H](O)CC[C@]5(C)[C@H]4CC[C@@]31C)C2`, the results for the viability at 40 µM in the assay with CWR22R [1], in the assay with PC-3 [2] and in the assay with VCaP [3] were 78.5%, 89.6% and 90.4%, respectively. Also, in the assay with CWR22R [4], the outcome was inactive. Also, the GI50 with VCaP [5], in the assay on CWR22R [7] and in the assay on PC-3 [10] was more than 40 µM in each case. For the same molecule, the inhibition entry in [6] was “inactive”. The inhibition entry in [8] and in assay [9] was “Active” throughout.
Consider `CC(=O)[C@@]12Cc3c(C(=O)O)cnn3C[C@@H]1C[C@H]1[C@@H]3CCC4=CC(=O)CC[C@]4(C)[C@H]3CC[C@@]12C`, for which the viability at 40 µM is 92.4% in the assay on CWR22R [1], more than 100% in the assay on PC-3 [2] and 95.7% in the assay with VCaP [3]. Further, the outcome in the assay with CWR22R [4] was inactive. The GI50 with VCaP [5], in the assay with CWR22R [7] and in the assay with PC-3 [10] was more than 40 µM throughout. The inhibition result in assay [6], in assay [8] and in assay [9] was “inactive” in each case.
Take `COC(=O)c1nn2c(c1C(=O)OC)C[C@]1(C(C)=O)[C@@H](C[C@H]3[C@@H]4CCC5=CC(=O)CC[C@]5(C)[C@H]4CC[C@@]31C)C2`: the figures for the viability at 40 µM in the assay with CWR22R [1], in the assay with PC-3 [2] and with VCaP [3] were 73.5%, 94% and 80.3%, respectively. For the same molecule, the outcome with CWR22R [4] was inactive. Further, the GI50 in the assay on VCaP [5], in the assay on CWR22R [7] and with PC-3 [10] was more than 40 µM in each case. Also, the inhibition result in assay [6] and in [8] was “inactive” in each case. Further, the inhibition result in assay [9] was “Active”.
